Measured values published in US8859284B2, “Delivery of nanoparticles to neurons” (The United States of America, as represented by the …, priority 2009, dated 2014).
Square brackets hold non-standard residues; d marks the D form. Ends that are not written are not given here. * marks the point of attachment. Farnesyl = CC(C)=CCC/C(C)=C/CC/C(C)=C/C*; Palmitoyl = CCCCCCCCCCCCCCCC(=O)*; Dap = NC[C@H](N)C(=O)O; Aib = CC(C)(N)C(=O)O

system: HEK 293T/17 cells; test: Cellular delivery of QDs, intracellular fate by fluorescence microscopy; settings: not given
Procedure: Human embryonic kidney (HEK 293T/17) and African green monkey kidney (COS-1) cell lines (ATCC, Manassas, Va.) were cultured in complete growth medium (Dulbecco's Modified Eagle's Medium (DMEM; purchased from ATCC)) supplemented with 1% (v/v) antibiotic/antimycotic and 10% (v/v) heat inactivated fetal bovine serum (ATCC). Cells were cultured in T-25 flasks and incubated at 37° C. under 5% CO2 atmosphere and a subculture was performed every 3-4 days (see reference 13).
The QD delivery experiments were performed on adherent cells seeded into the wells of Lab-Tek 8-well chambered #1 borosilicate coverglass (Nalge Nunc, Rochester, N.Y.) coated with 2 μg/mL fibronectin. For electroporation and nucleofection, adherent cells were harvested by trypsinization prior to performing QD delivery to cells in suspension. Cells were then seeded to chambered coverglass wells and imaged after cell attachment. The endosomal marker AlexaFluor647-transferrin was included as indicated in the text. For imaging, cells were washed with phosphate buffered saline (PBS, 137 mM NaCl, 10 mM phosphate, 3 mM KCl, pH 7.4), fixed with 3.7% paraformaldehyde in PBS and nuclei were stained with DAPI (Sigma) unless otherwise indicated.
For electroporation, cells were harvested by trypsinization and recovered for 1 hour in complete growth medium, pelleted, and resuspended in PBS. 510 nm DHLA-PEG QDs (0.5 μM final concentration) were mixed with 1×10^4 cells to a final volume of 100 μL in PBS in a 0.2 mm electroporation cuvette. The cuvette was subjected to 100 V for a 20 ms pulse using a GenePulser XCell electroporator (Bio-Rad, Hercules, Calif.). Cells were resuspended in complete growth medium, seeded into fibronectin-coated 8-well chambered coverglass, fixed and imaged after 24 hrs. For nucleofection delivery, 1×10^6 cells were harvested and resuspended in 100 μL of NUCLEOFECTOR reagent (Amaxa, Gaithersburg, Md.). 510 nm DHLA-PEG QDs were included at a final concentration of 0.4 μM. The cell/QD/reagent mixture was pulsed in the NUCLEOFECTOR using a preset protocol adapted for each specific cell line (20, 21). Cells were cultured and imaged as described for electroporation.
The INFLUX cell-loading reagent mediates the intracellular release of materials internalized via pinocytic vesicles by delivering the materials to cells in a hypertonic medium followed by the transfer of the cells to a hypotonic medium to induce vesicle disruption (see reference 22). 510 nm DHLA-PEG QDs were diluted to a final concentration of 300-800 nM in the supplied hypertonic delivery media according to manufacturer's instructions and incubated on the cells for 30 min at 37° C. The hypertonic medium was exchanged for hypotonic medium (serum-free culture medium diluted by 40% with deionized water) and incubated on the cells for 3 min. The cells were then recovered in complete growth medium for 30 min and cultured for various lengths of time prior to washing and fixation for imaging.
520 nm QDs with a 1:1 mixed surface of DHLA:DHLA-PEG were incubated with LIPOFECTAMINE 2000 for 20 min in serum free medium at a ratio of 1 μL LIPOFECTAMINE 2000 per 1.5 pmol QD. The complexes, at a final QD concentration of 75 nM, were incubated with the cells for 4 hours, removed and replaced with complete growth medium. The cells were then cultured for 24-36 h prior to washing and fixation.
PEI was incubated with 520 nm mixed surface DHLA:DHLA-PEG QDs in serum free medium at a ratio of 10 μg PEI per 1 pmol QD for 15 min. […] The complexes were then diluted into serum free media to a final QD concentration of 75-100 nM, incubated with cells for 2 h and removed. Cells were then cultured in complete media for 24-36 h, washed and fixed.
A stock solution of 520 nm DHLA:DHLA-PEG QDs (1 μM in 0.1 M borate buffer, pH 8.9) was diluted to 0.5 μM in HEPES (4-(2-hydroxyethyl)-1-piperazineethanesulfonic acid, pH 8.2).

| Compound | Toxicity |
| --- | --- |
| CCN(CC)CCCC(C)Nc1ccnc2cc(Cl)ccc12 (centres unmarked) [chloroquine] | significant cellular toxicity and morbidity |
| OC[C@H]1O[C@@](CO)(O[C@H]2O[C@H](CO)[C@@H](O)[C@H](O)[C@H]2O)[C@@H](O)[C@@H]1O [sucrose] | significant cellular toxicity and morbidity |

same assay, conditions: HEK 293T/17, endosomal marker AlexaFluor 647-transferrin

| Compound | intracellular distribution of QDs |
| --- | --- |
| O=C(O)CCCc1ccc2ccc3cccc4ccc1c2c34 [pyrenebutyrate] | no cytosolic dispersal was observed |

same assay, conditions: with QD-CPP, 2-3 h, highest concentrations (500 mM sucrose or 500 μM chloroquine)

| Compound | disruption of endosomes |
| --- | --- |
| CCN(CC)CCCC(C)Nc1ccnc2cc(Cl)ccc12 (centres unmarked) [chloroquine] | efficiently disrupted the endosomes |
| OC[C@H]1O[C@@](CO)(O[C@H]2O[C@H](CO)[C@@H](O)[C@H](O)[C@H]2O)[C@@H](O)[C@@H]1O [sucrose] | efficiently disrupted the endosomes |

system: COS-1 cells; test: Cellular uptake and endosomal escape of QD-peptide assemblies, fluorescence microscopy; assay type: cell-based, African green monkey; settings: COS1 cells, QD-peptide assemblies
Procedure: Merged images were generated using Adobe PhotoShop.
The peptide assemblies were incubated with COS-1 cells for 1 hr, removed, and the cells were subsequently cultured for 24 hr prior to fixation. An AlexaFluor 647-transferrin (Tf) conjugate was included during the incubation to label the vesicles of the endocytic pathway. Cell nuclei were stained with DAPI.

| Compound | % Escape in cells with uptake [%] |
| --- | --- |
| (H)6GG(P)9VKIKKDapaGW (HHHHHHGGPPPPPPPPPVKIKK[Dap](Palmitoyl)GW) [JB860] | 60 |
| (H)6GG(P)9WGDapaVKIKK (HHHHHHGGPPPPPPPPPWG[Dap](Palmitoyl)VKIKK) [JB859] | 17 |
| KETWWETWWTEWSQPKKKRKVSGAibAAAGG(H)6 (KETWWETWWTEWSQPKKKRKVSG[Aib]AAAGGHHHHHH) [JB719, Chariot peptide, reference compound] | 43 |
| VKIKKWGDapa(P)9GG(H)6 (VKIKKWG[Dap](Palmitoyl)PPPPPPPPPGGHHHHHH) [JB862] | 9 |
| WGCcVKIKK(P)9GG(H)6 [JB589] | 50 |
| WGCgVKIKK(P)9GG(H)6 (WGC(Farnesyl)VKIKKPPPPPPPPPGGHHHHHH; not fully specified) [JB872] | 79 |
| WGDapVKIKK(P)9GG(H)6 (WG[Dap]VKIKKPPPPPPPPPGGHHHHHH) [JB579] | 29 |
| WGDapVRL(P)3VRL(P)3VRL(P)3GG(H)6 (WG[Dap]VRLPPPVRLPPPVRLPPPGGHHHHHH) [JB868] | 18 |
| WGDapVRRRIRR(P)9GG(H)6 (WG[Dap]VRRRIRRPPPPPPPPPGGHHHHHH) [JB585] | 25 |
| WGDapa(P)9GG(H)6 (WG[Dap](Palmitoyl)PPPPPPPPPGGHHHHHH) [JB578] | 46 |
| WGDapaGDapaVKIKK(P)9GG(H)6 (WG[Dap](Palmitoyl)G[Dap](Palmitoyl)VKIKKPPPPPPPPPGGHHHHHH) [JB580] | 92 |
| WGDapaRRRIRR(P)9GGK [JB588] | 85 |
| WGDapaVKIKK(Aib)9GG(H)6 (WG[Dap](Palmitoyl)VKIKK[Aib][Aib][Aib][Aib][Aib][Aib][Aib][Aib][Aib]GGHHHHHH) [JB747] | 58 |

same assay, conditions: COS1 cells; first word of the cell

| Compound | Overall uptake/escape: uptake |
| --- | --- |
| (H)6GG(P)9VKIKKDapaGW (HHHHHHGGPPPPPPPPPVKIKK[Dap](Palmitoyl)GW) [JB860] | Moderate |
| (H)6GG(P)9WGDapaVKIKK (HHHHHHGGPPPPPPPPPWG[Dap](Palmitoyl)VKIKK) [JB859] | Moderate |
| KETWWETWWTEWSQPKKKRKVSGAibAAAGG(H)6 (KETWWETWWTEWSQPKKKRKVSG[Aib]AAAGGHHHHHH) [JB719, Chariot peptide, reference compound] | Moderate |
| VKIKKWGDapa(P)9GG(H)6 (VKIKKWG[Dap](Palmitoyl)PPPPPPPPPGGHHHHHH) [JB862] | Low |
| WGCcVKIKK(P)9GG(H)6 [JB589] | Low |
| WGCgVKIKK(P)9GG(H)6 (WGC(Farnesyl)VKIKKPPPPPPPPPGGHHHHHH; not fully specified) [JB872] | High |
| WGDapVKIKK(P)9GG(H)6 (WG[Dap]VKIKKPPPPPPPPPGGHHHHHH) [JB579] | Low |
| WGDapVRL(P)3VRL(P)3VRL(P)3GG(H)6 (WG[Dap]VRLPPPVRLPPPVRLPPPGGHHHHHH) [JB868] | Moderate |
| WGDapVRRRIRR(P)9GG(H)6 (WG[Dap]VRRRIRRPPPPPPPPPGGHHHHHH) [JB585] | Low |
| WGDapa(P)9GG(H)6 (WG[Dap](Palmitoyl)PPPPPPPPPGGHHHHHH) [JB578] | Low |
| WGDapaGDapaVKIKK(P)9GG(H)6 (WG[Dap](Palmitoyl)G[Dap](Palmitoyl)VKIKKPPPPPPPPPGGHHHHHH) [JB580] | Low |
| WGDapaRRRIRR(P)9GGK [JB588] | High |
| WGDapaVKIKK(Aib)9GG(H)6 (WG[Dap](Palmitoyl)VKIKK[Aib][Aib][Aib][Aib][Aib][Aib][Aib][Aib][Aib]GGHHHHHH) [JB747] | High |

same assay, conditions: COS1 cells; second word of the cell

| Compound | Overall uptake/escape: escape |
| --- | --- |
| (H)6GG(P)9VKIKKDapaGW (HHHHHHGGPPPPPPPPPVKIKK[Dap](Palmitoyl)GW) [JB860] | moderate |
| (H)6GG(P)9WGDapaVKIKK (HHHHHHGGPPPPPPPPPWG[Dap](Palmitoyl)VKIKK) [JB859] | low |
| KETWWETWWTEWSQPKKKRKVSGAibAAAGG(H)6 (KETWWETWWTEWSQPKKKRKVSG[Aib]AAAGGHHHHHH) [JB719, Chariot peptide, reference compound] | moderate |
| VKIKKWGDapa(P)9GG(H)6 (VKIKKWG[Dap](Palmitoyl)PPPPPPPPPGGHHHHHH) [JB862] | low |
| WGCcVKIKK(P)9GG(H)6 [JB589] | moderate |
| WGCgVKIKK(P)9GG(H)6 (WGC(Farnesyl)VKIKKPPPPPPPPPGGHHHHHH; not fully specified) [JB872] | high |
| WGDapVKIKK(P)9GG(H)6 (WG[Dap]VKIKKPPPPPPPPPGGHHHHHH) [JB579] | low |
| WGDapVRL(P)3VRL(P)3VRL(P)3GG(H)6 (WG[Dap]VRLPPPVRLPPPVRLPPPGGHHHHHH) [JB868] | low |
| WGDapVRRRIRR(P)9GG(H)6 (WG[Dap]VRRRIRRPPPPPPPPPGGHHHHHH) [JB585] | low |
| WGDapa(P)9GG(H)6 (WG[Dap](Palmitoyl)PPPPPPPPPGGHHHHHH) [JB578] | moderate |
| WGDapaGDapaVKIKK(P)9GG(H)6 (WG[Dap](Palmitoyl)G[Dap](Palmitoyl)VKIKKPPPPPPPPPGGHHHHHH) [JB580] | high |
| WGDapaRRRIRR(P)9GGK [JB588] | high |
| WGDapaVKIKK(Aib)9GG(H)6 (WG[Dap](Palmitoyl)VKIKK[Aib][Aib][Aib][Aib][Aib][Aib][Aib][Aib][Aib]GGHHHHHH) [JB747] | moderate |
